Data from US20230100941A1, “MOLECULES TARGETING MUTANT RAS PROTEIN” (AELIN THERAPEUTICS, priority 2020, published 2023).
Ends that are not written are not given here.

How the values were obtained:
G12V mutant KRAS = target: T1, G12V mutant KRAS (Homo sapiens, UniProt P01116, G12V); assay: In vitro translation assay with streptavidin pull-down of biotinylated pept-ins, Western blot for KRAS; type: binding; settings: 10 μM biotinylated pept-in
T1 construct: made in house; host or cells: cell-free: PURExpress In Vitro Protein Synthesis Kit (New England Biolabs), linear T7 PCR template
Procedure: (§1) In vitro translation assays were performed using the PURExpress® In Vitro Protein Synthesis Kit (New England Biolabs) according to the manufacturer's instructions. Briefly, linear DNA fragments containing T7 promotor and terminator sequences flanking the KRAS coding sequence were generated using PCR and purified using the MinElute PCR Purification Kit (Qiagen). 250 ng of linear DNA was subsequently used for the in vitro translation reaction, which was performed for 2 hours at 37° C. with shaking (1000 rpm). Indicated biotinylated pept-ins were mixed in the translation reactions from a 5 mM stock solution in 6M Urea to a final concentration of 10 μM. Upon completion of the translation reaction, biotinylated pept-ins were captured from the reaction mix using Streptavidin coated beads (Pierce) during 90 min at room temperature. Beads were next washed with TBS containing 0.1% Tween 20 and bound proteins were finally boiled off in 1×SDS loading dye (Bio-Rad) in TBS buffer. Proteins were resolved using Any kD 15-well Mini-PROTEAN gels (Bio-Rad) during SDS-PAGE and probed for KRAS after Western blotting using a mouse monoclonal KRAS-specific antibody (SC-30, Santa Cruz Biotechnology), which was detected with an HRP-coupled anti-mouse secondary antibody using chemiluminescence on a Bio-Rad Chemidoc MP imaging instrument.
(§2) To mimic this in vitro, we devised an in vitro translation setup producing either wild-type or mutant (G12V, G12C, G12D or G13D) KRAS in the presence of biotinylated RAS-targeting pept-ins. This allowed us to perform a streptavidin pull-down to capture the biotinylated pept-ins from the translation reaction and perform SDS-PAGE and Western blotting to probe the pulled-down fraction for the presence of KRAS. The biotinylated version of pept-in 04-004-N001, i.e. 04-004-N011, which harbours an APR window sequence derived from a wild-type APR, is predicted to target all RAS proteins independently from their mutation status.

G12C mutant KRAS = target: T2, G12C mutant KRAS (Homo sapiens, UniProt P01116, G12C); assay: as above; type: binding; settings: 10 μM biotinylated pept-in
T2 construct: made in house; host or cells: cell-free: PURExpress In Vitro Protein Synthesis Kit (New England Biolabs), linear T7 PCR template
Procedure: as §1, §2

[1] = Single-dose viability screen on adherently growing (2D) NCI-H441 cells (CellTiter Blue); type: cell-based, human; settings: 25 μM single dose, adherent NCI-H441, compared to vehicle (30 mM Urea); read-out: decrease in viability after 4 days of exposure
Procedure: For the single-dose viability screen on adherent cells, 4000 cells were seeded per well in black μclear® Cellstar® F-bottom 96-well plates (Greiner) in 100 μL full growth medium. The day after seeding, growth medium was replaced with full growth medium containing the indicated pept-in at a fixed final dose of 25 μM. Technical duplicates were included for all experimental pept-in conditions. 2 and 4 days after treatment viability was assessed using the CellTiter Blue reagent (Promega) according to the manufacturer's instructions, with the following adaptation: CellTiter Blue reagent was diluted 1 in 2 in PBS. Readout was performed on a Clariostar plate reader (BMG). Dose-response assays were performed with the following adaptations: pept-ins were tested in dose-response using a 1 in 2 dilution series with 50 μM being the highest final concentration used. Furthermore, a single viability read-out was performed 3 days after treatment using the Celltiter Glo reagent (Promega) according to the manufacturer's instructions, with the following adaptation: CellTiter Glo reagent was diluted 1 in 4 in PBS.
To assess pept-in activity on the viability of RAS-mutant tumor cells, we used adherent NCI-H441 lung adenocarcinoma cells which harbor a G12V mutation in KRAS. To verify that this cell line was indeed dependent on KRAS for its growth, we used SAH-SOS-1A as a positive control. SAH-SOS-1A is a peptidic compound whose design is based on a stabilized helix from son of sevenless 1, the canonical guanine exchange factor for KRAS (Leshchiner et al. Proc Natl Acad Sci U S A. 2015, vol. 112(6), 1761-6).
Pept-ins were screened at a single dose of 25 μM (corresponds to final concentration of 30 mM Urea) and viability was measured after 2 and 4 days of exposure using the CellTiter Blue reagent. […] Hit rates and potencies for the other templates tested were considerably lower. […] One of these pept-ins (04-004-N001) harbours an APR window sequence derived from another APR of RAS, that is thus present in both G12 mutant and wild-type RAS, while the other four pept-ins (04-006-N001, 04-014-N001, 04-015-N001 and 04-033-N001) harbour an APR window sequence that is derived from and contains a G12V mutant site.

SW620 tumor = assay: In vivo SW620 xenograft model of human KRAS G12V colorectal cancer; parameters: species or system mouse; settings: for average tumor volume at day 22, 20 μg dosing group / average tumor volume at day 22, 200 μg dosing group: intratumoral injection three times per week
Procedure: Female NCr nu/nu mice (8 to 12 weeks) were inoculated with 1×10^6 SW620 tumor cells in 50% Matrigel subcutaneously in the hind flank. The cell Injection Volume was 0.1 mL/mouse. When tumors reached an average size of 100-150 mm^3 a pair match was performed, and treatment started. Group sizes were N=6 for the non-treated group, N=5 for the vehicle groups and N=8 for the pept-in and positive control groups. Tumor growth was monitored by caliper measurement twice per week. Model response was monitored by Irinotecan dosed once per week at 100 mg/kg intraperitoneally for 3 weeks.
To assess whether the RAS-targeting pept-ins are able to attenuate growth of KRAS G12V-driven tumors in vivo, a subcutaneous xenograft model of human KRAS G12V colorectal cancer (SW620) was used. Once the tumors reached 100-150mm^3 in size, pept-ins were administered directly into the tumor mass by intratumoral injection three times per week during two weeks at two different doses (20 μg and 200μg).

[2] = test system: RASless MEFs expressing KRAS G12V; assay: Spheroid efficacy on RASless MEF panel; type: cell-based, mouse; settings: spheroids, 5 days of exposure
Procedure: (§3) For the single-dose viability screen on spheroid cultures, 1000 cells were seeded per well in black Ultra-Low Attachment (ULA) round-bottom 96-well plates (Corning) in 75 μL full growth medium. The day after seeding, spheroids were treated by addition of 50 µl of full growth medium containing the indicated test compounds so that the final concentration after adding was 25 μM. Technical duplicates were included for all experimental pept-in conditions 5 days after treatment viability was assessed using the CellTiter Glo 3D reagent (Promega) according to the manufacturer's instructions, with the following adaptation: 80 μL of reagent was added per well. Readout was performed on a Clariostar plate reader (BMG). For dose-response assays using RASless MEFs, cells were seeded at 1000 (G12V and G12C) or 2000 (wild-type and BRAF V600E) in Matrigel-containing medium, in order to obtain equally viable spheroids at start of treatment, 24 hrs later. […]
RAS mutant-selectivity on cellular efficacy was assessed using the isogenic RASless mouse embryonic fibroblast (MEF) panel. […] The panel assessed included the common clinical KRAS variants expressed as transgene (WT, G12V and G12C) and an additional cell line dependent on the expression of BRAF V600E for proliferation.
Efficacy of RAS-targeting pept-ins on MEFs growing as spheroids was assessed after 5 days of exposure. […]

[3] = test system: NCI-H441 cells growing as suspension spheroid cultures; assay: Single-dose viability screen on NCI-H441 suspension spheroid cultures (3D, CellTiter Glo 3D); type: cell-based, human; settings: 25 μM single dose, 5 days
Procedure: as §3, with “(BMG).” for “(BMG). For dose-response assays using RASless MEFs, cells were seeded at 1000 (G12V and G12C) or 2000 (wild-type and BRAF V600E) in Matrigel-containing medium, in order to obtain equally viable spheroids at start of treatment, 24 hrs later.”
As previous reports have shown that adherent growth of KRAS mutant cells lines might attenuate their sensitivity to KRAS inhibition or knockdown (Fujita-Sato et al. Cancer Res. 2015, vol. 75, 2851-62; Patricelli et al. Cancer Discov. 2016, vol. 6, 316-29; Vartanian et al. J Biol Chem. 2013, vol. 288, 2403-13), we complemented the screen on adherently growing NCI-H441 cells with a screen on suspension spheroid cultures of the same cell line. […] Viability of the spheroid cultures was determined after 5 days of exposure using the CellTiter Glo 3D reagent from Promega. […]

04-006-N007: biotinylated version of a biologically active pept-in harbouring an APR window containing the G12V mutant site (KVVVGAVKGSKVVVGAVK; also: biotinylated, site not given here)
pull-down of G12V mutant KRAS (G12V mutant KRAS): notable pull-down was only observed for the G12V mutant KRAS

04-015-N026: biotinylated version of a biologically active pept-in harbouring an APR window containing the G12V mutant site (KVVVGAVGKGSKVVVGAVGK; also: biotinylated, site not given here)
pull-down of G12C mutant KRAS (G12C mutant KRAS): notable pull-down
pull-down of G12V mutant KRAS (G12V mutant KRAS): notable pull-down

04-033-N003: biotinylated version of a biologically active pept-in harbouring an APR window containing the G12V mutant site (KVVVGAVGVGKGSKVVVGAVGVGK; also: biotinylated, site not given here)
pull-down of G12V mutant KRAS (G12V mutant KRAS): notable pull-down was only observed for the G12V mutant KRAS

CC(=O)N[C@@H](CCCCN)C(=O)N[C@H](C(=O)N[C@H](C(=O)N[C@H](C(=O)NCC(=O)N[C@@H](C)C(=O)N[C@H](C(=O)NCC(=O)N[C@@H](CCCCN)C(=O)NCC(=O)N[C@@H](CO)C(=O)N[C@@H](CCCCN)C(=O)N[C@H](C(=O)N[C@H](C(=O)N[C@H](C(=O)NCC(=O)N[C@@H](C)C(=O)N[C@H](C(=O)NCC(=O)N[C@@H](CCCCN)C(N)=O)C(C)C)C(C)C)C(C)C)C(C)C)C(C)C)C(C)C)C(C)C)C(C)C [04-015-N001]
cytotoxicity [1]: ≥ 75%
average tumor volume at day 22, 20 μg dosing group (SW620 tumor): significant reduction in average tumor volume
average tumor volume at day 22, 200 μg dosing group (SW620 tumor): significant reduction in average tumor volume
reduction in tumor growth (comparison between pept-ins) (SW620 tumor; intratumoral injection, 20 μg and 200 μg): strongest reduction in tumor growth

Ac-KLSVFAIKGSKLSVFAIK-NH2 [04-004-N001]
cytotoxicity [1]: ≥ 75%
efficacy on MEFs expressing KRAS G12V [2]: notable increased efficacy
average tumor volume at day 22, 20 μg dosing group (SW620 tumor): only significant for the 200 μg dosing group
average tumor volume at day 22, 200 μg dosing group (SW620 tumor): significant

Ac-KLVVVGAVKGSKLVVVGAVK-NH2 [04-014-N001]
cytotoxicity [1]: ≥ 75%
activity in the spheroid setting [3]: did not display activity

Ac-KVVVGAVGVGKGSKVVVGAVGVGK-NH2 [04-033-N001]
cytotoxicity [1]: ≥ 75%

Ac-KVVVGAVKGSKVVVGAVK-NH2 [04-006-N001]
cytotoxicity [1]: ≥ 75%
